Reference: US8227428B2, “Anti-infammatory macrolide” (Glaxo Group Limited, priority 2009, dated 2012)

Experiments:
[1] = In vitro stability in human whole blood; type: in vitro ADME; conditions: 37° C., after 24 hours
Procedure: An in vitro stability study in human whole blood and plasma is carried out over 24 hours at 37° C. Drug-free freshly collected human blood (CPD—citrate-phosphate-dextrose is used for all blood collections as anticoagulant) and plasma are spiked with a previously prepared standard solution of test compound to a final concentration of 2000 ng/mL. For each compound blood and plasma are spiked in duplicate and incubated for 24 hours. Two separate aliquots of blood or plasma (50 μL) are sampled from each incubation mixture at 0, 15, 30, 60, 120, 240 and 1440 minutes. All aliquots are mixed with an equal volume of water (50 μL) and extracted with 300 μL of acetonitrile/methanol (2:1) containing internal standard (roxithromycin). The samples are then vortexed, centrifuged and analysed by LC/MS/MS (MRM mode). Results are expressed as the percentage of compound remaining, expressed as the ratio of analyte/internal standard.

[2] = Stability in buffer solutions pH 2 to pH 8 at 25° C.; type: physicochemical
Procedure: Stability in buffer solutions pH 2 to pH 8 at 25° C., and in bio-relevant media (SGF pH 1.6, Fasted SIF pH 6.5 and Fed SIF pH 5.0) at 37° C., during 24 hours is monitored. The samples are analysed by LC/MS.
Buffer Solutions and Physiologically Relevant Media Used in Stability Assay:
LC Conditions: Instrument HP1100
Column: Waters XBridge C18, 2.1×50 mm, 3.5 μm
Guard column: Waters XBridge C18, 2.1×10 mm, 3.5 μm
• A) 0.1% HCOOH/H2O • B) 0.1% HCOOH/CH3CN Gradient Timetable: […]
Flow: 0.3 mL/min Column temp.: 25° C. Sample temp.: 25° C. (for stability assay in buffer solutions) • 37° C. (for stability assay in bio-relevant media) Injector volume: 3 μL (without injection program) MS Conditions: Instrument HP MS API-ES, positive ion mode Mass Range: 150-1500 Fragmentor: 100 Gain: 1.0 Treshold: 150 Step size: 0.20 Gas Temperature: 350° C. Drying Gas Flow: 13 L/min Nebulizer Pressure: 35 psig Capillary Voltage Positive 4000 V • Negative 4000 V Sample Preparation: a) For Stability Assay in Buffer Solutions
Compounds are dissolved in CH3CN to produce a 1 mg/mL stock solution. The stock solution is diluted to a concentration of 0.2 mg/mL (1 mL solution in 4 mL buffer) with appropriate buffer to produce a working solution.
Each solution at each pH is then dispatched into vials that are sealed and stored at room temperature in order to be analyzed at the proper time point. Before analysis, pH values of prepared sample solutions are checked and adjusted if neccessary.

[3] = test system: Lung neutrophilia induced by bacterial lipopolysaccharide (LPS); assay: Lung neutrophilia induced by bacterial lipopolysaccharide (LPS) in male BALB/cJ mice; type: in vivo; conditions: average; single dose 200 mg/kg i.p.; vs LPS challenged untreated animals
Procedure: For intraperitoneal administration (i.p.) compounds are dissolved in a final concentration of 10 mg/mL. The required amount of compound is first dissolved in dimethylsulfoxide (DMSO, Sigma) and then diluted with 0.5% (w/v) methyl-cellulose so that the final DMSO concentration is 5% (v/v). The obtained solution is applied in a dose volume of 0.2 mL per 10 g of animal. Therefore, the compound dose is 200 mg/kg.
Male BALB/cJ mice (Charles River, France), with an average weight of ˜30 g are randomly grouped (n=8 in testing group, 10 in positive control and 8 in negative control). Mice receive intraperitoneally (i.p.) a single dose of 200 mg/kg of test compound. Two hours after administration, 2 μg of LPS (from Escherichia coli serotype 0111:B4, Sigma), dissolved in sterile PBS in a volume of 60 μL, is intranasally administered to all experimental groups except the negative control group, which receive the same volume of vehicle (PBS). Animals are sacrificed approximately 24 hours after application of LPS in order to obtain bronchioalveolar lavage fluid (BALF), which is used to determine absolute number of cells and the percentage of neutrophils. Results are expressed as percentage decrease in total cell number and number of neutrophils in BALF of treated animals compared to positive control (LPS challenged, but untreated animals).

CC[C@H]1OC(=O)[C@H](C)[C@@H](O[C@H]2C[C@@](C)(OC)[C@@H](OC(=O)CCN(CC)CC)[C@H](C)O2)[C@H](C)[C@@H](O[C@@H]2O[C@H](C)C[C@H](NC)[C@H]2O)[C@](C)(OC)C[C@@H](C)C(=O)N[C@H](C)[C@@H](O)[C@]1(C)O [Example 2, 3′-N-Demethyl-4″-O-(3-diethylaminopropionoyl)-6-O-methyl-9a-aza-9a-homoerythromycin A]
compound remaining in whole blood [1]: around 41%
stability in buffers at pH 7 and at pH 8 ([2]; 25° C., during 24 hours): showed instability
Percentage (Area %) of the compound observed in buffers ([2]; pH 2, 25° C., 2 h): 100 Area %
Percentage (Area %) of the compound observed in buffers ([2]; pH 2, 25° C., 4 h): 100 Area %
Percentage (Area %) of the compound observed in buffers ([2]; pH 2, 25° C., 6 h): 98.7 Area %
Percentage (Area %) of the compound observed in buffers ([2]; pH 2, 25° C., 8 h): 98.5 Area %
Percentage (Area %) of the compound observed in buffers ([2]; pH 2, 25° C., 12 h): 97.6 Area %
Percentage (Area %) of the compound observed in buffers ([2]; pH 2, 25° C., 14 h): 97.6 Area %
Percentage (Area %) of the compound observed in buffers ([2]; pH 2, 25° C., 18 h): 97.5 Area %
Percentage (Area %) of the compound observed in buffers ([2]; pH 2, 25° C., 20 h): 97.3 Area %
Percentage (Area %) of the compound observed in buffers ([2]; pH 2, 25° C., 22 h): 97.2 Area %
Percentage (Area %) of the compound observed in buffers ([2]; pH 2, 25° C., 24 h): 97.2 Area %
Percentage (Area %) of the compound observed in buffers ([2]; pH 2, 25° C., Initial): 100 Area %
Percentage (Area %) of the compound observed in buffers ([2]; pH 3, 25° C., 2 h): 100 Area %
Percentage (Area %) of the compound observed in buffers ([2]; pH 3, 25° C., 4 h): 100 Area %
Percentage (Area %) of the compound observed in buffers ([2]; pH 3, 25° C., 6 h): 98.8 Area %
Percentage (Area %) of the compound observed in buffers ([2]; pH 3, 25° C., 8 h): 97.5 Area %
Percentage (Area %) of the compound observed in buffers ([2]; pH 3, 25° C., 12 h): 97.3 Area %
Percentage (Area %) of the compound observed in buffers ([2]; pH 3, 25° C., 14 h): 97.3 Area %
Percentage (Area %) of the compound observed in buffers ([2]; pH 3, 25° C., 18 h): 97.0 Area %
Percentage (Area %) of the compound observed in buffers ([2]; pH 3, 25° C., 20 h): 97.0 Area %
Percentage (Area %) of the compound observed in buffers ([2]; pH 3, 25° C., 22 h): 97.0 Area %
Percentage (Area %) of the compound observed in buffers ([2]; pH 3, 25° C., 24 h): 96.9 Area %
Percentage (Area %) of the compound observed in buffers ([2]; pH 3, 25° C., Initial): 100 Area %
Percentage (Area %) of the compound observed in buffers ([2]; pH 4, 25° C., 2 h): 100 Area %
Percentage (Area %) of the compound observed in buffers ([2]; pH 4, 25° C., 4 h): 100 Area %
Percentage (Area %) of the compound observed in buffers ([2]; pH 4, 25° C., 6 h): 100 Area %
Percentage (Area %) of the compound observed in buffers ([2]; pH 4, 25° C., 8 h): 99.3 Area %
Percentage (Area %) of the compound observed in buffers ([2]; pH 4, 25° C., 12 h): 99.0 Area %
Percentage (Area %) of the compound observed in buffers ([2]; pH 4, 25° C., 14 h): 98.5 Area %
Percentage (Area %) of the compound observed in buffers ([2]; pH 4, 25° C., 18 h): 98.5 Area %
Percentage (Area %) of the compound observed in buffers ([2]; pH 4, 25° C., 20 h): 98.4 Area %
Percentage (Area %) of the compound observed in buffers ([2]; pH 4, 25° C., 22 h): 98.4 Area %
Percentage (Area %) of the compound observed in buffers ([2]; pH 4, 25° C., 24 h): 98.3 Area %
Percentage (Area %) of the compound observed in buffers ([2]; pH 4, 25° C., Initial): 100 Area %
Percentage (Area %) of the compound observed in buffers ([2]; pH 5, 25° C., 2 h): 98.5 Area %
Percentage (Area %) of the compound observed in buffers ([2]; pH 5, 25° C., 4 h): 98.5 Area %
Percentage (Area %) of the compound observed in buffers ([2]; pH 5, 25° C., 6 h): 98.4 Area %
Percentage (Area %) of the compound observed in buffers ([2]; pH 5, 25° C., 8 h): 98.4 Area %
Percentage (Area %) of the compound observed in buffers ([2]; pH 5, 25° C., 12 h): 98.4 Area %
Percentage (Area %) of the compound observed in buffers ([2]; pH 5, 25° C., 14 h): 98.3 Area %
Percentage (Area %) of the compound observed in buffers ([2]; pH 5, 25° C., 18 h): 98.3 Area %
Percentage (Area %) of the compound observed in buffers ([2]; pH 5, 25° C., 20 h): 98.3 Area %
Percentage (Area %) of the compound observed in buffers ([2]; pH 5, 25° C., 22 h): 98.3 Area %
Percentage (Area %) of the compound observed in buffers ([2]; pH 5, 25° C., 24 h): 98.0 Area %
Percentage (Area %) of the compound observed in buffers ([2]; pH 5, 25° C., Initial): 100 Area %
Percentage (Area %) of the compound observed in buffers ([2]; pH 6, 25° C., 2 h): 99.6 Area %
Percentage (Area %) of the compound observed in buffers ([2]; pH 6, 25° C., 4 h): 99.4 Area %
Percentage (Area %) of the compound observed in buffers ([2]; pH 6, 25° C., 6 h): 99.0 Area %
Percentage (Area %) of the compound observed in buffers ([2]; pH 6, 25° C., 8 h): 99.0 Area %
Percentage (Area %) of the compound observed in buffers ([2]; pH 6, 25° C., 12 h): 99.0 Area %
Percentage (Area %) of the compound observed in buffers ([2]; pH 6, 25° C., 14 h): 98.5 Area %
Percentage (Area %) of the compound observed in buffers ([2]; pH 6, 25° C., 18 h): 98.3 Area %
Percentage (Area %) of the compound observed in buffers ([2]; pH 6, 25° C., 20 h): 98.2 Area %
Percentage (Area %) of the compound observed in buffers ([2]; pH 6, 25° C., 22 h): 98.2 Area %
Percentage (Area %) of the compound observed in buffers ([2]; pH 6, 25° C., 24 h): 98.1 Area %
Percentage (Area %) of the compound observed in buffers ([2]; pH 6, 25° C., Initial): 100 Area %
Percentage (Area %) of the compound observed in buffers ([2]; pH 7, 25° C., 2 h): 97.8 Area %
Percentage (Area %) of the compound observed in buffers ([2]; pH 7, 25° C., 4 h): 93.4 Area %
Percentage (Area %) of the compound observed in buffers ([2]; pH 7, 25° C., 6 h): 89.8 Area %
Percentage (Area %) of the compound observed in buffers ([2]; pH 7, 25° C., 8 h): 89.3 Area %
Percentage (Area %) of the compound observed in buffers ([2]; pH 7, 25° C., 12 h): 85.1 Area %
Percentage (Area %) of the compound observed in buffers ([2]; pH 7, 25° C., 14 h): 84.3 Area %
Percentage (Area %) of the compound observed in buffers ([2]; pH 7, 25° C., 18 h): 84.0 Area %
Percentage (Area %) of the compound observed in buffers ([2]; pH 7, 25° C., 20 h): 81.3 Area %
Percentage (Area %) of the compound observed in buffers ([2]; pH 7, 25° C., 22 h): 79.9 Area %
Percentage (Area %) of the compound observed in buffers ([2]; pH 7, 25° C., 24 h): 78.4 Area %
Percentage (Area %) of the compound observed in buffers ([2]; pH 7, 25° C., Initial): 100 Area %
Percentage (Area %) of the compound observed in buffers ([2]; pH 8, 25° C., 2 h): 92.0 Area %
Percentage (Area %) of the compound observed in buffers ([2]; pH 8, 25° C., 4 h): 81.7 Area %
Percentage (Area %) of the compound observed in buffers ([2]; pH 8, 25° C., 6 h): 77.7 Area %
Percentage (Area %) of the compound observed in buffers ([2]; pH 8, 25° C., 8 h): 71.7 Area %
Percentage (Area %) of the compound observed in buffers ([2]; pH 8, 25° C., 12 h): 63.4 Area %
Percentage (Area %) of the compound observed in buffers ([2]; pH 8, 25° C., 14 h): 60.2 Area %
Percentage (Area %) of the compound observed in buffers ([2]; pH 8, 25° C., 18 h): 54.2 Area %
Percentage (Area %) of the compound observed in buffers ([2]; pH 8, 25° C., 20 h): 51.1 Area %
Percentage (Area %) of the compound observed in buffers ([2]; pH 8, 25° C., 22 h): 47.1 Area %
Percentage (Area %) of the compound observed in buffers ([2]; pH 8, 25° C., 24 h): 44.6 Area %
Percentage (Area %) of the compound observed in buffers ([2]; pH 8, 25° C., Initial): 100 Area %
inhibition of the number of neutrophils in BALF [3]: more than 70%
